From US9932354B2, “Imidazo-oxadiazole and imidazo-thiadiazole derivatives” (Ares Trading S.A., priority 2012, dated 2018)

Key:
[1] = tested on: Amyloid-β peptide release (Aβ42), HEK cells overexpressing APP (HEK-APP); assay: Amyloid-β peptide release (Aβ42) assay, AlphaLISA on supernatant of HEK-APP cells; type: cell-based; conditions: Homo sapiens, HEK293, 24 h incubation with compound, read-out: Ab42 IC50 Ranges
Description: (§1) Amyloid-β Peptide Release (Aβ42 & AβTotal) Assay to Determine IC50 Values.
(§2) Compounds are dissolved in and diluted in 100% DMSO and incubated with HEK-APP cells for 24 h at 37° C. in 5% CO2. The supernatant from HEK-APP cells are mixed with antibodies: for Aβ42 detection: AlphaLISA Amyloid-β 1-42 Kit (Perkin Elmer AL203L) Anti-Amyloid β1-42-specific antibody acceptor beads, biotinylated anti-Amyloid-“β1-42” antibody and streptavidin (SA) donor beads diluted in AlphaLISA buffer (to the instructions of the supplier). For Aβ total detection: Custom Anti-Amyloid-βtotal acceptor beads (6E10 acceptor beads), biotinylated anti-Amyloid “β1-42” antibody (Perkin Elmer AL203L) and streptavidin (SA) donor beads diluted in AlphaLISA buffer (to the instructions of the supplier). After addition of supernatant to the antibody mix, the assay is incubated for 4.5 h. Amyloid-β peptide release (Aβ42 & AβTotal) is measured with a Pherastar FS (BMG) multimode reader using the alphascreen module.

[2] = tested on: Amyloid-β peptide release (AβTotal), HEK cells overexpressing APP (HEK-APP); assay: Amyloid-β peptide release (AβTotal) assay, AlphaLISA on supernatant of HEK-APP cells; type: cell-based; conditions: ratio Abtot vs Ab42, HEK-APP cells, 24 h
Description: as §1, §2

| SMILES | IC50 [1] [nM] | Abtot/Ab42 selectivity ranges [2] |
| --- | --- | --- |
| Cc1ncc2oc(-c3ccc(NC(=O)Cc4ccccc4C(F)(F)F)cc3)nn12 [Example 1, N-[4-(5-Methyl-imidazo[5,1-b][1,2,4]oxadiazol-2-yl)-phenyl]-2-(2-trifluoromethyl-phenyl)-acetamide] | 500 to 1000 | b (b: 100 fold > selectivity ≥ 50 fold) |
| Cc1ncc2oc(-c3ccc(NC(=O)Cc4ccc(C#N)cc4)cc3)nn12 [Example 49, 2-(4-Cyano-phenyl)-N-[4-(5-methyl-imidazo[5,1-b] [1,2,4]oxadiazol-2-yl)-phenyl]-acetamide] | 1000 to 2200 | c (c: 50 fold > selectivity ≥ 10 fold) |
| Cc1ncc2oc(-c3ccc(NC(=O)Cc4cc(F)ccc4C(F)(F)F)cc3)nn12 [Example 66, 2-(5-fluoro-2-(trifluoromethyl)phenyl)-N-(4-(5-methylimidazo [5,1-b][1,3,4]oxadiazol-2-yl)phenyl)acetamide] | 1000 to 2200 | c (c: 50 fold > selectivity ≥ 10 fold) |
| COc1cc(NC(=O)Cc2c(Cl)cc(C(F)(F)F)cc2Cl)ccc1-c1nn2c(C)ncc2o1 [Example 32, 2-(2,6-dichloro-4-(trifluoromethyl)phenyl)-N-(3-methoxy-4-(5-methylimidazo[5,1-b][1,3,4]oxadiazol-2-yl)phenyl) acetamide] | 100 to 500 | a (a: selectivity ≥ 100 fold) |
| Cc1ncc2oc(-c3ccc(NC(=O)Cc4ccc(C(C)(C)C)cc4)cc3)nn12 [Example 57, 2-(4-tert-Butyl-phenyl)-N-[4-(5-methyl-imidazo[5,1-b][1,2,4]oxadiazol-2-yl)-phenyl]-acetamide] | 500 to 1000 | b (b: 100 fold > selectivity ≥ 50 fold) |
| COc1cc(NC(=O)Cc2ccccc2)ccc1-c1nn2c(C)ncc2o1 [Example 36, N-(3-methoxy-4-(5-methylimidazo[5,1-b][1,3,4]oxadiazol-2-yl)phenyl)-2-phenylacetamide] | 1000 to 2200 | c (c: 50 fold > selectivity ≥ 10 fold) |
| COc1cc(C(=O)NCc2ccc(Cl)c(Cl)c2)ccc1-c1nn2c(C)ncc2o1 [Example 19, N-(3,4-Dichloro-benzyl)-3-methoxy-4-(5-methyl-imidazo[5,1-b][1,2,4]oxadiazol-2-yl)-benzamide] | 1000 to 2200 | c (c: 50 fold > selectivity ≥ 10 fold) |
| Cc1ncc2oc(-c3ccc(NC(=O)Cc4cccc(C(F)(F)F)c4)cc3)nn12 [Example 3, N-[4-(5-Methyl-imidazo[5,1-b][1,2,4]oxadiazol-2-yl)-phenyl]-2-(3-trifluoromethyl-phenyl)-acetamide] | 1000 to 2200 | c (c: 50 fold > selectivity ≥ 10 fold) |
| Cc1cc(-c2nn3c(C)ncc3o2)ccc1NC(=O)Cc1c(Cl)cc(C(F)(F)F)cc1Cl [Example 42, 2-(2,6-dichloro-4-(trifluoromethyl)phenyl)-N-(2-methyl-4-(5-methylimidazo[5,1-b][1,3,4]oxadiazol-2-yl)phenyl)acetamide] | 500 to 1000 | b (b: 100 fold > selectivity ≥ 50 fold) |
| Cc1ncc2sc(C(=O)N3CCCC3c3ccccc3)nn12 (centres unmarked) [Example 93, (5-Methyl-imidazo[5,1-b][1,3,4]thiadiazol-2-yl)-(2-phenyl-pyrrolidin-1-yl)-methanone] | 100 to 500 | d (d: 10 fold > selectivity) |
| Cc1ncc2oc(-c3ccc(NC(=O)Cc4cccc(Br)c4)cc3)nn12 [Example 9, 2-(3-Bromo-phenyl)-N-[4-(5-methyl-imidazo[5,1-b][1,2,4]oxadiazol-2-yl)-phenyl]-acetamide] | 500 to 1000 | c (c: 50 fold > selectivity ≥ 10 fold) |
| Cc1ncc2oc(-c3ccc(NC(=O)Cc4ccccc4C(F)(F)F)cn3)nn12 [Example 83, N-[6-(5-Methyl-imidazo[5,1-b][1,2,4]oxadiazol-2-yl)-pyridin-3-yl]-2-(2-trifluoromethyl-phenyl)-acetamide] | 1000 to 2200 | c (c: 50 fold > selectivity ≥ 10 fold) |
| Cc1ncc2oc(-c3ccc(NC(=O)Cc4ccc(OC(F)(F)F)cc4)cn3)nn12 [Example 11, N-[6-(5-Methyl-imidazo[5,1-b][1,2,4]oxadiazol-2-yl)-pyridin-3-yl]-2-(4-trifluoromethoxy-phenyl)-acetamide] | 100 to 500 | b (b: 100 fold > selectivity ≥ 50 fold) |
| Cc1ncc2sc(C(=O)NC(c3ccc(Cl)cc3)C3CC3)nn12 (centres unmarked) [Example 91, 5-Methyl-imidazo[5,1-b][1,3,4]thiadiazole-2-carboxylic acid [(4-chloro-phenyl)-cyclopropyl-methyl]-amide] | 1000 to 2200 | d (d: 10 fold > selectivity) |
| Cc1ncc2oc(-c3ccc(NC(=O)Cc4cccc(F)c4F)cn3)nn12 [Example 79, 2-(2,3-Difluoro-phenyl)-N-[6-(5-methyl-imidazo[5,1-b][1,2,4]oxadiazol-2-yl)-pyridin-3-yl]-acetamide] | 1000 to 2200 | c (c: 50 fold > selectivity ≥ 10 fold) |
| Cc1ncc2oc(-c3ccc(NC(=O)C(c4ccccc4)c4ccccc4)cn3)nn12 [Example 80, N-[6-(5-Methyl-imidazo[5,1-b][1,2,4]oxadiazol-2-yl)-pyridin-3-yl]-2,2-diphenyl-acetamide] | 500 to 1000 | c (c: 50 fold > selectivity ≥ 10 fold) |
| CCOc1ccccc1CNC(=O)c1nn2c(C)ncc2s1 [Example 96, 5-Methyl-imidazo[5,1-b][1,3,4]thiadiazole-2-carboxylic acid 2-ethoxy-benzylamide] | 500 to 1000 | d (d: 10 fold > selectivity) |
| Cc1ncc2oc(-c3ccc(NC(=O)Cc4ccc(C(F)(F)F)cc4Br)cc3)nn12 [Example 5, 2-(2-Bromo-4-trifluoromethyl-phenyl)-N-[4-(5-methyl-imidazo[5,1-b][1,2,4]oxadiazol-2-yl)-phenyl]-acetamide] | 500 to 1000 | c (c: 50 fold > selectivity ≥ 10 fold) |
| Cc1ncc2oc(-c3ccc(NC(=O)Cc4cccc5ccccc45)cn3)nn12 [Example 13, N-[6-(5-Methyl-imidazo[5,1-b][1,2,4]oxadiazol-2-yl)-pyridin-3-yl]-2-naphthalen-1-yl-acelamide] | 1000 to 2200 | c (c: 50 fold > selectivity ≥ 10 fold) |
| COc1cc(NC(=O)Cc2ccccc2C(F)(F)F)ccc1-c1nn2c(C)ncc2o1 [Example 37, N-(3-methoxy-4-(5-methylimidazo[5,1-b][1,3,4]oxadiazol-2-yl)phenyl)-2-(2-(trifluoromethyl)phenyl)acetamide] | 1000 to 2200 | c (c: 50 fold > selectivity ≥ 10 fold) |
| Cc1ncc2oc(-c3ccc(Nc4nc5c(s4)CCCC5c4ccccc4)cc3)nn12 (centres unmarked) [Example 26, [4-(5-Methyl-imidazo[5,1-b][1,2,4]oxadiazol-2-yl)-phenyl]-(4-phenyl-4,5,6,7-tetrahydro-benzothiazol-2-yl)-amine] | 1000 to 2200 | c (c: 50 fold > selectivity ≥ 10 fold) |
| Cc1ncc2oc(-c3ccc(C(=O)NCc4cccc(Cl)c4Cl)cc3)nn12 [Example 87, N-(2,3-dichlorobenzyl)-4-(5-methylimidazo[5,1-b][1,3,4]oxadiazol-2-yl)benzamide] | 1000 to 2200 | c (c: 50 fold > selectivity ≥ 10 fold) |
| COc1cc(NC(=O)Cc2cccc3ccccc23)ccc1-c1nn2c(C)ncc2s1 [Example 125, N-[3-Methoxy-4-(5-methyl-imidazo[5,1-b][1,3,4]thiadiazol-2-yl)-phenyl]-2-naphthalen-1-yl-acetamide] | 100 to 500 | c (c: 50 fold > selectivity ≥ 10 fold) |
| Cc1ncc2sc(-c3ccc(NC(=O)Cc4ccc(Cl)c(Cl)c4)cc3)nn12 [Example 128, 2-(3,4-Dichloro-phenyl)-N-[4-(5-methyl-imidazo[5,1-b][1,3,4]thiadiazol-2-yl)-phenyl]-acetamide] | 500 to 1000 | c (c: 50 fold > selectivity ≥ 10 fold) |
| Cc1ncc2oc(-c3ccc(NC(=O)Cc4ccc(Oc5ccccc5)cc4)cn3)nn12 [Example 78, N-[6-(5-Methyl-imidazo[5,1-b][1,2,4]oxadiazol-2-yl)-pyridin-3-yl]-2-(4-phenoxy-phenyl)-acetamide] | 1000 to 2200 | c (c: 50 fold > selectivity ≥ 10 fold) |
| Cc1ncc2oc(-c3ccc(Nc4nccc(NCc5cccc(C(F)(F)F)c5)n4)cc3)nn12 [Example 76, N2-(4-(5-methylimidazo[5,1-b][1,3,4]oxadiazol-2-yl)phenyl)-N4-(3-(trifluoromethyl)benzyl) pyrimidine-2,4-diamine] | 1000 to 2200 | d (d: 10 fold > selectivity) |
| Cc1ncc2sc(C(=O)N(C)CCc3ccccc3)nn12 [Example 97, 5-Methyl-imidazo[5,1-b][1,3,4]thiadiazole-2-carboxylic acid methyl-phenethyl-amide] | 500 to 1000 | d (d: 10 fold > selectivity) |
| Cc1ncc2sc(C(=O)N3CCCC3c3ccccc3Cl)nn12 (centres unmarked) [Example 122, [2-(2-Chloro-phenyl)-pyrrolidin-1-yl]-(5-methyl-imidazo[5,1-b][1,3,4]thiadiazol-2-yl)-methanone] | 1000 to 2200 | d (d: 10 fold > selectivity) |
